Data as given in paper PMC10649961, “Novel Mitochondria-Targeted Amphiphilic Aminophosphonium Salts and Lipids Nanoparticles: Synthesis, Antitumor Activity and Toxicity” (Nanomaterials, 2023).
Read-outs that look alike come from different tables or passages of the source.

Columns and labels:
T98G [1] = tested on: T98G
HuTu 80 [2] = assay: cells; details: Homo sapiens, HuTu80, 48 h, read-out: Cytotoxic Effects (IC50)
T98G [3] = assay: cells; details: Homo sapiens, 48 h, read-out: Cytotoxic Effects (IC50)
[4] = tested on: Candida albicans ATCC 10231; assay: Antimicrobial activity, serial microdilutions, Ca; assay type: cell-based; design: key to Minimum Inhibitory Concentration (MIC) / Minimum bactericidal and fungicidal concentrations (MBC, MFC): – means non-active; details: for MIC / MBC: Candida albicans, ATCC10231; for MIC: read-out: Minimum Inhibitory Concentration (MIC); for MBC: read-out: Minimum bactericidal and fungicidal concentrations (MBC, MFC)
Experimental: (§1) The antimicrobial activity of test compounds was determined by serial microdilutions in 96-well plates using Mueller-Hinton broth for bacterial culture and Sabouraud broth for yeast culture. Cultures of Gram-positive bacteria were used in the experiment: Staphylococcus aureus ATCC 6538 P FDA 209P, Bacillus cereus ATCC 10702 NCTC 8035, Enterococcus faecalis ATCC 29212; Gram-negative bacteria: Escherichia coli ATCC 25922, Pseudomonas aeruginosa ATCC 9027; and yeast: Candida albicans ATCC 10231, purchased from the State Collection of Pathogenic Microorganisms and Cell Cultures “SCPM-Obolensk” (Obolensk, Russia). Methicillin-resistant strains of S. aureus (MRSA) were isolated from patients with chronic tonsillitis (MRSA-1) and sinusitis (MRSA-2) in the bacteriological laboratory of the Republican Clinical Hospital (Kazan, Russia). The experiments were carried out in triplicate.

MRSA-2 = assay: Antimicrobial activity, serial microdilutions, MRSA-2; assay type: cell-based, S. aureus; details: Staphylococcus aureus; for MIC: read-out: Minimum Inhibitory Concentration (MIC); for MBC: read-out: Minimum bactericidal and fungicidal concentrations (MBC, MFC)
Experimental: as §1

A549 [5] = assay: cells; details: Homo sapiens, A549, 48 h, read-out: Cytotoxic Effects (IC50)
MRSA-1 = assay: Antimicrobial activity, serial microdilutions, MRSA-1; assay type: cell-based, S. aureus; design: key to Minimum Inhibitory Concentration (MIC) / Minimum bactericidal and fungicidal concentrations (MBC, MFC): – means non-active; details: for MIC / MBC: Staphylococcus aureus; for MIC: read-out: Minimum Inhibitory Concentration (MIC); for MBC: read-out: Minimum bactericidal and fungicidal concentrations (MBC, MFC)
Experimental: as §1

HuTu 80 [6] = details: calculated relative to the cell line WI38 (a)
[7] = tested on: Escherichia coli ATCC 25922; assay: Antimicrobial activity, serial microdilutions, Ec; assay type: cell-based; design: key to Minimum Inhibitory Concentration (MIC) / Minimum bactericidal and fungicidal concentrations (MBC, MFC): – means non-active; details: for MIC / MBC: Escherichia coli; for MIC: ATCC25922, read-out: Minimum Inhibitory Concentration (MIC); for MBC: ATCC25922, read-out: Minimum bactericidal and fungicidal concentrations (MBC, MFC)
Experimental: as §1

MCF-7 [8] = assay: cells; details: Homo sapiens, MCF7, 48 h, read-out: Cytotoxic Effects (IC50)
DU-145 [9] = tested on: DU-145
A549 [10] = tested on: A549
PANC-1 [11] = assay: cells; details: Homo sapiens, PANC-1, 48 h, read-out: Cytotoxic Effects (IC50)
[12] = tested on: Pseudomonas aeruginosa ATCC 9027; assay: Antimicrobial activity, serial microdilutions, Pa; assay type: cell-based; design: key to Minimum Inhibitory Concentration (MIC) / Minimum bactericidal and fungicidal concentrations (MBC, MFC): – means non-active; details: for MIC / MBC: Pseudomonas aeruginosa; for MIC: ATCC9027, read-out: Minimum Inhibitory Concentration (MIC); for MBC: ATCC9027, read-out: Minimum bactericidal and fungicidal concentrations (MBC, MFC)
Experimental: as §1

[13] = tested on: Staphylococcus aureus ATCC 6538 P FDA 209P; assay: Antimicrobial activity, serial microdilutions, Sa; assay type: cell-based; design: key to Minimum bactericidal and fungicidal concentrations (MBC, MFC): – means non-active; details: for MIC / MBC: Staphylococcus aureus; for MIC: read-out: Minimum Inhibitory Concentration (MIC); for MBC: read-out: Minimum bactericidal and fungicidal concentrations (MBC, MFC)
Experimental: as §1

M-HeLa [14] = assay: cells; details: Homo sapiens, 48 h, read-out: Cytotoxic Effects (IC50)
Hep G2 [15] = tested on: Hep G2
DU-145 [16] = assay: cells; details: Homo sapiens, DU-145, 48 h, read-out: Cytotoxic Effects (IC50), DU-145, MTT assay, 48 h
[17] = tested on: Bacillus cereus ATCC 10702 NCTC 8035; assay: Antimicrobial activity, serial microdilutions, Bc; assay type: cell-based; design: key to Minimum bactericidal and fungicidal concentrations (MBC, MFC): – means non-active; details: for MIC / MBC: Bacillus cereus; for MIC: read-out: Minimum Inhibitory Concentration (MIC); for MBC: read-out: Minimum bactericidal and fungicidal concentrations (MBC, MFC)
Experimental: as §1

SK-OV-3 [18] = tested on: SK-OV-3
SK-OV-3 [19] = assay: cells; details: Homo sapiens, SK-OV-3, 48 h, read-out: Cytotoxic Effects (IC50)
Hep G2 [20] = assay: cells; details: Homo sapiens, HepG2, 48 h, read-out: Cytotoxic Effects (IC50)
PC3 [21] = assay: cells; details: Homo sapiens, PC-3, 48 h, read-out: Cytotoxic Effects (IC50), PC3, MTT assay, 48 h
PC3 [22] = tested on: PC3
M-HeLa [23] = details: calculated relative to the cell line WI38 (a)
MCF-7 [24] = tested on: MCF-7
PANC-1 [25] = details: calculated relative to the cell line WI38 (a)
[26] = tested on: Enterococcus faecalis ATCC 29212; assay: Antimicrobial activity, serial microdilutions, Ef; assay type: cell-based; design: key to Minimum Inhibitory Concentration (MIC) / Minimum bactericidal and fungicidal concentrations (MBC, MFC): – means non-active; details: for MIC / MBC: Enterococcus faecalis; for MIC: ATCC29212, read-out: Minimum Inhibitory Concentration (MIC); for MBC: ATCC29212, read-out: Minimum bactericidal and fungicidal concentrations (MBC, MFC)
Experimental: as §1

[27] = reference normal cell line not marked at the place (ns cells)
[28] = calculated relative to the cell line WI38 (a)

For `CCCCCCCC[N+](CC)(CC)CC` [compound 7, Triethyloctylammonium iodide, reference compound], the “selectivity index (SI)” value (T98G [1]; [27]) was “ns (ns—no selectivity)”, the IC50 (HuTu 80 [2]) was 1900 ± 200 nM and the IC50 (T98G [3]) was > 100000 nM. The “Minimum Inhibitory Concentration (MIC)” value ([4]; Ca) was “–”, the “Minimum bactericidal and fungicidal concentrations (MBC, MFC)” value ([4]; Ca) was “–” and the MIC (MRSA-2) was 250 ± 20 µM. For the same compound, the MBC (MRSA-2) was 500 ± 47 µM, the IC50 (A549 [5]) was > 100000 nM and the “Minimum bactericidal and fungicidal concentrations (MBC, MFC)” value (MRSA-1) was “–”. The MIC (MRSA-1) was 250 ± 19 µM, the “selectivity index (SI)” value (HuTu 80 [6]) was 26 and the “Minimum Inhibitory Concentration (MIC)” value [7] was “–”. The “Minimum bactericidal and fungicidal concentrations (MBC, MFC)” value [7] was “–”, the IC50 (MCF-7 [8]) was 29100 ± 2000 nM and the “selectivity index (SI)” value (DU-145 [9]; [27]) was “ns (ns—no selectivity)”. For the same compound, the “selectivity index (SI)” value (A549 [10]; [27]) was “ns (ns—no selectivity)”, the IC50 (PANC-1 [11]) was 44600 ± 3100 nM and the “Minimum Inhibitory Concentration (MIC)” value [12] was “–”. For the same compound, the “Minimum bactericidal and fungicidal concentrations (MBC, MFC)” value [12] was “–”, the “Minimum bactericidal and fungicidal concentrations (MBC, MFC)” value [13] was “–” and the MIC [13] was 250 ± 20 µM. The IC50 (M-HeLa [14]) was 16100 ± 1300 nM, the “selectivity index (SI)” value (Hep G2 [15]; [27]) was “ns (ns—no selectivity)” and the IC50 (DU-145 [16]) was 58000 ± 4100 nM. For the same compound, the MIC ([17]; Bc) was 500 ± 47 µM, the “Minimum bactericidal and fungicidal concentrations (MBC, MFC)” value ([17]; Bc) was “–” and the “selectivity index (SI)” value (SK-OV-3 [18]; [27]) was “ns (ns—no selectivity)”. For the same compound, the IC50 (SK-OV-3 [19]) was 69000 ± 4800 nM, the IC50 (Hep G2 [20]) was > 100000 nM and the IC50 (PC3 [21]) was 32700 ± 2300 nM. The “selectivity index (SI)” value (PC3 [22]; [28]) was 1.5, the “selectivity index (SI)” value (M-HeLa [23]) was 3.0 and the “selectivity index (SI)” value (MCF-7 [24]; [28]) was 1.7. For the same compound, the “selectivity index (SI)” value (PANC-1 [25]) was 1.1, the “Minimum Inhibitory Concentration (MIC)” value [26] was “–” and the “Minimum bactericidal and fungicidal concentrations (MBC, MFC)” value [26] was “–”.
For `CCCCCCCCCC[P+](c1ccccc1)(c1ccccc1)N(CC)CC` [6d, Decyl(diethylamino)diphenylphosphonium iodide], the “selectivity index (SI)” value (T98G [1]; [27]) was “ns (ns—no selectivity)”, the IC50 (HuTu 80 [2]) was 350 ± 20 nM and the IC50 (T98G [3]) was 600 ± 50 nM. It also gave an MIC [4] of 62.5 ± 5.4 µM, an MBC [4] of 250 ± 19 µM and an MIC (MRSA-2) of 0.5 ± 0.03 µM. For the same compound, the MBC (MRSA-2) was 0.9 ± 0.08 µM, the IC50 (A549 [5]) was 8200 ± 700 nM and the MIC (MRSA-1) was 0.5 ± 0.03 µM. The MBC (MRSA-1) was 0.9 ± 0.07 µM, the “selectivity index (SI)” value (HuTu 80 [6]) was 1.1 and the MIC [7] was 62.5 ± 5.3 µM. The MBC [7] was 62.5 ± 5.5 µM, the IC50 (MCF-7 [8]) was 1600 ± 100 nM and the “selectivity index (SI)” value (DU-145 [9]; [28]) was 1.0. The “selectivity index (SI)” value (A549 [10]; [27]) was “ns (ns—no selectivity)”, the IC50 (PANC-1 [11]) was 400 ± 30 nM and the MIC [12] was 125 ± 10 µM. The MBC [12] was 125 ± 9 µM, the MIC [13] was 0.9 ± 0.08 µM and the MBC [13] was 62.5 ± 5.4 µM. The IC50 (M-HeLa [14]) was 240 ± 20 nM, the “selectivity index (SI)” value (Hep G2 [15]; [27]) was “ns (ns—no selectivity)” and the IC50 (DU-145 [16]) was 430 ± 30 nM. The MIC ([17]; Bc) was 0.9 ± 0.08 µM, the MBC [17] was 250 ± 21 µM and the “selectivity index (SI)” value (SK-OV-3 [18]; [27]) was “ns (ns—no selectivity)”. For the same compound, the IC50 (SK-OV-3 [19]) was 3900 ± 400 nM, the IC50 (Hep G2 [20]) was 1300 ± 100 nM and the IC50 (PC3 [21]) was 1400 ± 100 nM. For the same compound, the “selectivity index (SI)” value (PC3 [22]; [27]) was “ns (ns—no selectivity)”, the “selectivity index (SI)” value (M-HeLa [23]) was 1.6 and the “selectivity index (SI)” value (MCF-7 [24]; [27]) was “ns (ns—no selectivity)”. The “selectivity index (SI)” value (PANC-1 [25]) was 1.0, the MIC [26] was 3.9 ± 0.3 µM and the MBC [26] was 250 ± 19 µM.
For `CCCCCCCCCCCCCC[P+](c1ccccc1)(c1ccccc1)N(CC)CC` [6e, (Diethylamino)diphenyl(tetradecyl)phosphonium bromide], the “selectivity index (SI)” value (T98G [1]; [28]) was 2.5, the IC50 (HuTu 80 [2]) was 70 ± 5 nM and the IC50 (T98G [3]) was 1100 ± 90 nM. It also gave an MIC [4] of 1.9 ± 0.1 µM, an MBC [4] of 15.6 ± 1.2 µM and an MIC (MRSA-2) of 0.5 ± 0.03 µM. The MBC (MRSA-2) was 0.5 ± 0.04 µM, the IC50 (A549 [5]) was 2100 ± 100 nM and the MIC (MRSA-1) was 0.5 ± 0.04 µM. For the same compound, the MBC (MRSA-1) was 1.9 ± 0.1 µM, the “selectivity index (SI)” value (HuTu 80 [6]) was 40 and the MIC [7] was 31.3 ± 2.4 µM. For the same compound, the MBC [7] was 125 ± 11 µM, the IC50 (MCF-7 [8]) was 1200 ± 100 nM and the “selectivity index (SI)” value (DU-145 [9]; [28]) was 7.0. The “selectivity index (SI)” value (A549 [10]; [28]) was 1.3, the IC50 (PANC-1 [11]) was 300 ± 20 nM and the MIC [12] was 3.9 ± 0.3 µM. The MBC [12] was 3.9 ± 0.4 µM, the MIC [13] was 0.5 ± 0.04 µM and the MBC [13] was 0.5 ± 0.04 µM. For the same compound, the IC50 (M-HeLa [14]) was 400 ± 30 nM, the “selectivity index (SI)” value (Hep G2 [15]; [28]) was 2.0 and the IC50 (DU-145 [16]) was 400 ± 20 nM. The MIC ([17]; Bc) was 0.9 ± 0.08 µM, the MBC [17] was 31.3 ± 2.5 µM and the “selectivity index (SI)” value (SK-OV-3 [18]; [28]) was 1.8. For the same compound, the IC50 (SK-OV-3 [19]) was 1600 ± 100 nM, the IC50 (Hep G2 [20]) was 1400 ± 100 nM and the IC50 (PC3 [21]) was 1500 ± 100 nM. For the same compound, the “selectivity index (SI)” value (PC3 [22]; [28]) was 1.9, the “selectivity index (SI)” value (M-HeLa [23]) was 7.0 and the “selectivity index (SI)” value (MCF-7 [24]; [28]) was 2.3. The “selectivity index (SI)” value (PANC-1 [25]) was 9.3, the MIC [26] was 0.5 ± 0.03 µM and the MBC [26] was 0.9 ± 0.1 µM.
